The values that follow come from patent US20220016048A1, “CANNABIDIOL-TYPE CANNABINOID COMPOUND” (GW Research Limited, priority 2018, published 2022).

The subject of experiment [1] is sub-chronic PCP-induced deficit in social behaviour in female Lister-Hooded rats. Briefly: social interaction test in sub-chronic PCP treated rats. Format: in vivo, rat. The method, then:
The aim of the current study was to investigate the ability of CBD-C4 (3, 10 & 30 mg/kg IP; 60 min pre-treatment (ptt)) in comparison with risperidone (an atypical antipsychotic; 0.1 mg/kg IP; 60 min pre-treatment), to antagonise a sub-chronic PCP (scPCP; 2 mg/kg IP; twice daily for 7-days; 7 day wash out)-induced deficit in social behaviour in female Lister-Hooded rats.
180 female Lister Hooded rats were used for this experiment, of which 90 were used for the drug study and 90 weight-matched untreated conspecifics were used as the companion rat, and their behaviour was not scored.
Rats were housed in groups of 5 under standard laboratory conditions under a 12-hr light: dark cycle, lights on at 0700 hr. Testing was carried out in the light phase. These studies were carried out in accordance with the Animals Scientific Procedures Act (UK, 1986).
CBD-C4 was used at doses of (3, 10, 30 mg/kg, i.p.) and risperidone was used at a dose of 0.1 mg/kg, i.p.
Rats were randomly assigned to two treatment groups and treated with vehicle, n=15 (distilled water, i.p.) or PCP, n=75 (2 mg/kg, i.p. twice daily for 7-days). This was followed by a 7-day wash out period before the rats were tested following acute treatment with CBD-C4, risperidone or vehicle.
Risperidone (0.1 mg/kg) was dissolved in a minimum volume of acetic acid, made up to volume with distilled water and pH adjusted to 6 with 0.1M NaOH and administered via the i.p. route in a volume of 1 ml/kg, 60 min prior to testing.
CBD-C4 (3, 10 & 30 mg/kg) was dissolved in 2:1:17 (Ethanol:Cremophor EL:Saline 0.9%). CBD-C4 was administered via the i.p. route in a volume of 5 ml/kg, 60 min prior to testing.
The social interaction test was performed in an open-field comprising a square box made of Plexiglas (52×52×31 cm) placed 27 cm above the floor on a moveable trolley. The floor of the box was white with black gridlines forming 9 identical squares on it. All other walls were black. A video camera connected to a video recorder and monitor was positioned above the box. The object used for the test consists of a heavy structure made of metal that cannot be displaced by the animals.
After a 7 day drug-free period, the rats were habituated to the test environment and arena prior to the test day. Habituation consisted of placing all rats from one cage together in the empty test arena for one hour for three days including the day before the test day.
Pairs of rats, weight matched (15-20 g) and unfamiliar to each other, receiving either no treatment (n=90 “conspecific” rats) or different treatments (PCP; n=15 “tested” rats, Vehicle; n=15 “tested” rats, or PCP+drug; n=60 “tested” rats) were placed in the test arena together for 10 minutes and behavior assessed as described below.
An inanimate object such as an unopened drink can was also placed in the centre of the arena to measure any differences in interaction of the test animal with an unfamiliar animal as opposed to an unfamiliar object. After each 10-minute trial, the object and arena were cleaned with 10% alcohol in an attempt to remove traces of any olfactory cues. All testing was carried out under standard room illumination levels (70 cd/m^2).
Behaviour in both trials was recorded on video for subsequent blind scoring. A behavioural scoring software program (Hindsight, Scientific programming services) was used to score the following parameters:
Investigative sniffing behaviour: sniffing the conspecific's snout or parts of the body including the anogenital region.
Following: rat moves after the conspecific i.e. a vehicle treated rat of the same species, around the arena.
Avoidances: actively turning away when approached by the conspecific animal.
Investigation of object: exploration of object placed in centre of the arena.
Locomotor activity is recorded by counting the total number of sectors (i.e. lines) crossed by the test rat.
All data were assessed for normality using D'Agostino and Pearson normality test. […]

The test system of experiment [2] is PCP-induced social behaviour deficit in female rats. The settings on record: background statement; cited from earlier work.
The test system of a further experiment is mouse model of seizure. Briefly: maximal electroshock (MES) test in the mouse. The note with it: 2 mg/kg i.p. 30 minutes before MES; p<0.001. The class given is in vivo. The method, then:
Mice were administered MES (50 mA, rectangular current: 0.6 ms pulse width, 0.4 s duration, 50 Hz) via corneal electrodes connected to a constant current shock generator (Ugo Basile: type 7801). The number of tonic convulsions was recorded.
Twelve mice were studied per group. The test was performed blind.
The test substance, CBD-C4, was evaluated at 5 doses (3, 10, 30, 100 and 200 mg/kg), administered i.p. 60 minutes before MES, and compared with a vehicle control group (administered under the same experimental conditions).
Diazepam (2 mg/kg i.p.), administered i.p. 30 minutes before MES, was used as a reference substance and was compared with a vehicle group (administered i.p. 60 minutes before MES).
Data was analysed by comparing treated groups with the appropriate vehicle control using Fisher's Exact Probability tests.

Setting [3] is: 0.1 mg/kg i.p., 60 min pre-treatment.
The mark [4] stands for this setting: CBD-C4 3, 10, 30 mg/kg, risperidone 0.1 mg/kg i.p., data not shown.

The structures appear in SMILES notation.

Consider `c1ccc(C2(N3CCCCC3)CCCCC2)cc1` [PCP, Phencyclidine], for which the “sniffing behaviour (scPCP vs vehicle)” value in experiment [1] (PCP 2 mg/kg i.p. twice daily 7 days, 7-day wash out, P<0.001) was “significantly reduced”. In addition, the “following behaviour (scPCP vs vehicle)” value in experiment [1] (PCP 2 mg/kg i.p. twice daily 7 days, 7-day wash out, P<0.01) is recorded as “significantly reduced”. In experiment [1] (PCP 2 mg/kg i.p. twice daily 7 days, 7-day wash out, P=0.058), the “increase in the duration of avoidance activity (scPCP vs vehicle)” value was “just failed to reach statistical significance”.

With `O=C1CCc2ccc(OCCCCN3CCN(c4cccc(Cl)c4Cl)CC3)cc2N1` [aripiprazole], the “attenuation of PCP-induced social behaviour deficit” value (shortened to “attenuation”) in experiment [2] is given as “attenuated”.

`CN1C(=O)CN=C(c2ccccc2)c2cc(Cl)ccc21` [diazepam, Diazepam, reference compound]: the “decrease in the number of tonic convulsions, as compared with vehicle controls” value in the experiment with mouse model of seizure is on record as −75%.

Consider `CNCCC(Oc1ccc(C(F)(F)F)cc1)c1ccccc1` (stereo not shown) [fluoxetine], for which the “attenuation” value in experiment [2] is “not attenuated”.

Regarding `O=C(CCCN1CCC(O)(c2ccc(Cl)cc2)CC1)c1ccc(F)cc1` [haloperidol], the “attenuation” value in experiment [2] is on record as “not attenuated”.

Turning to `Cc1nc2n(c(=O)c1CCN1CCC(c3noc4cc(F)ccc34)CC1)CCCC2` [risperidone], in experiment [1] (setting [3]), the “avoidance behaviour compared to the scPCP-treated group” value is reported as “significantly decreased”, the following behaviour result is “no significant effect” and the sniffing behaviour result is on record as “no significant effect”. For the same compound, in experiment [1] (setting [4]), the “line crossings (locomotor activity)” value is on record as “no significant effect” and the object exploration entry was “no significant effect”.

On to `O=C1Cc2cc(CCN3CCN(c4nsc5ccccc45)CC3)c(Cl)cc2N1` [ziprasidone], for which the “attenuation” value in experiment [2] is recorded as “attenuated”.
